Source: PubChem BioAssay AID2060886 (Molecular Pharmacology Branch, DTP, NCI, 2025)

Test system: 653999-131-R-J2-PDC complex spheroids, growth inhibition
Assay: Anticancer human tumor 653999-131-R-J2-PDC patient-derived lung adenocarcinoma cell line growth inhibition [RAS]
Conditions: for IC50: curve of first compound; for viability, T/C: stronger effect = lower value
In short: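 Agents were tested in combination matrices in half-log decrements from a top concentration at or near clinical Cmax (10 microM if undetermined). Targets were multi-cell spheroids of tumour lines plus HUVEC and MSC stromal cells.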

[1] = second compound 0.0316 µM, first compound 0.0316 µM
[2] = second compound 0.0316 µM, first compound 0.1 µM
[3] = second compound 0.0316 µM, first compound 0.316 µM
[4] = second compound 0.0316 µM, first compound 1 µM
[5] = second compound 0.0316 µM, first compound 3.16 µM
[6] = second compound 0.0316 µM, first compound 10 µM
[7] = second compound 0.1 µM, first compound 0.0316 µM
[8] = second compound 0.1 µM, first compound 0.1 µM
[9] = second compound 0.1 µM, first compound 0.316 µM
[10] = second compound 0.1 µM, first compound 1 µM
[11] = second compound 0.1 µM, first compound 3.16 µM
[12] = second compound 0.1 µM, first compound 10 µM
[13] = second compound 0.316 µM, first compound 0.0316 µM
[14] = second compound 0.316 µM, first compound 0.1 µM
[15] = second compound 0.316 µM, first compound 0.316 µM
[16] = second compound 0.316 µM, first compound 1 µM
[17] = second compound 0.316 µM, first compound 3.16 µM
[18] = second compound 0.316 µM, first compound 10 µM
[19] = second compound 1 µM, first compound 0.0316 µM
[20] = second compound 1 µM, first compound 0.1 µM
[21] = second compound 1 µM, first compound 0.316 µM
[22] = second compound 1 µM, first compound 1 µM
[23] = second compound 1 µM, first compound 3.16 µM
[24] = second compound 1 µM, first compound 10 µM
[25] = second compound 3.16 µM, first compound 0.0316 µM
[26] = second compound 3.16 µM, first compound 0.1 µM
[27] = second compound 3.16 µM, first compound 0.316 µM
[28] = second compound 3.16 µM, first compound 1 µM
[29] = second compound 3.16 µM, first compound 3.16 µM
[30] = second compound 3.16 µM, first compound 10 µM
[31] = second compound 10 µM, first compound 0.0316 µM
[32] = second compound 10 µM, first compound 0.1 µM
[33] = second compound 10 µM, first compound 0.316 µM
[34] = second compound 10 µM, first compound 1 µM
[35] = second compound 10 µM, first compound 3.16 µM
[36] = second compound 10 µM, first compound 10 µM
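Note: spheroids exposed to the agents for seven days before the readout.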

Cc1nc(N2CCC3(CC2)COC(C)C3N)c(CO)nc1Sc1ccnc(N)c1Cl (stereo unspecified) + C#Cc1c(F)ccc2cc(O)cc(-c3ncc4c(N5CC6CCC(C5)N6)nc(OCC56CCCN5CC(F)C6)nc4c3F)c12
IC50 (second compound 0.0316 µM): > 10000 nM
IC50 (second compound 0.1 µM): > 10000 nM
IC50 (second compound 0.316 µM): > 10000 nM
IC50 (second compound 1 µM): 193 nM
IC50 (second compound 3.16 µM): < 31.6 nM
IC50 (second compound 10 µM): < 31.6 nM
viability, T/C [1]: 89.8%
viability, T/C [2]: 88.9%
viability, T/C [3]: 74.5%
viability, T/C [4]: 69.2%
viability, T/C [5]: 73.2%
viability, T/C [6]: 76.2%
viability, T/C [7]: 65.3%
viability, T/C [8]: 62.1%
viability, T/C [9]: 66%
viability, T/C [10]: 60%
viability, T/C [11]: 64.3%
viability, T/C [12]: 55.2%
viability, T/C [13]: 68.4%
viability, T/C [14]: 52.6%
viability, T/C [15]: 50.5%
viability, T/C [16]: 45.9%
viability, T/C [17]: 74.5%
viability, T/C [18]: 47.9%
viability, T/C [19]: 61.8%
viability, T/C [20]: 52.9%
viability, T/C [21]: 48.5%
viability, T/C [22]: 41.1%
viability, T/C [23]: 30.5%
viability, T/C [24]: 30.2%
viability, T/C [25]: 41.9%
viability, T/C [26]: 35.4%
viability, T/C [27]: 32.2%
viability, T/C [28]: 21.8%
viability, T/C [29]: 17.3%
viability, T/C [30]: 20.2%
viability, T/C [31]: 27%
viability, T/C [32]: 13.9%
viability, T/C [33]: 18.9%
viability, T/C [34]: 11%
viability, T/C [35]: 8.6%
viability, T/C [36]: 9.77%

NC1c2ccccc2OC12CCN(c1cnc3c(N4CCCc5ncccc54)n[nH]c3n1)CC2 (stereo unspecified) + C#Cc1c(F)ccc2cc(O)cc(-c3ncc4c(N5CC6CCC(C5)N6)nc(OCC56CCCN5CC(F)C6)nc4c3F)c12
IC50 (second compound 0.0316 µM): > 10000 nM
IC50 (second compound 0.1 µM): 1390 nM
IC50 (second compound 0.316 µM): < 31.6 nM
IC50 (second compound 1 µM): < 31.6 nM
IC50 (second compound 3.16 µM): < 31.6 nM
IC50 (second compound 10 µM): < 31.6 nM
viability, T/C [1]: 72.8%
viability, T/C [2]: 67.5%
viability, T/C [3]: 64.5%
viability, T/C [4]: 72.2%
viability, T/C [5]: 71.3%
viability, T/C [6]: 60.2%
viability, T/C [7]: 64.5%
viability, T/C [8]: 75.4%
viability, T/C [9]: 60.1%
viability, T/C [10]: 53.2%
viability, T/C [11]: 44.6%
viability, T/C [12]: 41.1%
viability, T/C [13]: 48%
viability, T/C [14]: 50.4%
viability, T/C [15]: 40.4%
viability, T/C [16]: 42.7%
viability, T/C [17]: 32.6%
viability, T/C [18]: 45.8%
viability, T/C [19]: 41.7%
viability, T/C [20]: 34.8%
viability, T/C [21]: 33.9%
viability, T/C [22]: 32.4%
viability, T/C [23]: 32.7%
viability, T/C [24]: 19.5%
viability, T/C [25]: 30.3%
viability, T/C [26]: 25.8%
viability, T/C [27]: 16.9%
viability, T/C [28]: 18.1%
viability, T/C [29]: 18.7%
viability, T/C [30]: 13%
viability, T/C [31]: 12%
viability, T/C [32]: 7.13%
viability, T/C [33]: 7.02%
viability, T/C [34]: 6.33%
viability, T/C [35]: 7.29%
viability, T/C [36]: 7.2%

Nc1ccn(C2OC(CO)C(O)C2(F)F)c(=O)n1 (stereo unspecified) + C#Cc1c(F)ccc2cc(O)cc(-c3ncc4c(N5CC6CCC(C5)N6)nc(OCC56CCCN5CC(F)C6)nc4c3F)c12
IC50 (second compound 0.0316 µM): 71.1 nM
IC50 (second compound 0.1 µM): 36.8 nM
IC50 (second compound 0.316 µM): 11.8 nM
IC50 (second compound 1 µM): 3.37 nM
IC50 (second compound 3.16 µM): < 3.16 nM
IC50 (second compound 10 µM): < 3.16 nM
viability, T/C (second compound 0.0316 µM, first compound 0.00316 µM): 98.5%
viability, T/C (second compound 0.0316 µM, first compound 0.01 µM): 74.4%
viability, T/C [1]: 58.3%
viability, T/C [2]: 48.5%
viability, T/C [3]: 36.6%
viability, T/C [4]: 32.4%
viability, T/C (second compound 0.1 µM, first compound 0.00316 µM): 96.9%
viability, T/C (second compound 0.1 µM, first compound 0.01 µM): 59.8%
viability, T/C [7]: 56.4%
viability, T/C [8]: 46%
viability, T/C [9]: 34.6%
viability, T/C [10]: 31.4%
viability, T/C (second compound 0.316 µM, first compound 0.00316 µM): 58.1%
viability, T/C (second compound 0.316 µM, first compound 0.01 µM): 52.4%
viability, T/C [13]: 39.2%
viability, T/C [14]: 32.1%
viability, T/C [15]: 27.6%
viability, T/C [16]: 26.5%
viability, T/C (second compound 1 µM, first compound 0.00316 µM): 50.5%
viability, T/C (second compound 1 µM, first compound 0.01 µM): 43%
viability, T/C [19]: 29.8%
viability, T/C [20]: 20.9%
viability, T/C [21]: 19.9%
viability, T/C [22]: 18.9%
viability, T/C (second compound 3.16 µM, first compound 0.00316 µM): 35.4%
viability, T/C (second compound 3.16 µM, first compound 0.01 µM): 28.4%
viability, T/C [25]: 19.1%
viability, T/C [26]: 14.9%
viability, T/C [27]: 14.6%
viability, T/C [28]: 14.5%
viability, T/C (second compound 10 µM, first compound 0.00316 µM): 33.6%
viability, T/C (second compound 10 µM, first compound 0.01 µM): 13.5%
viability, T/C [31]: 21.2%
viability, T/C [32]: 13.9%
viability, T/C [33]: 12.7%
viability, T/C [34]: 10.1%
